In general, Ki refers to a dissociation constant, usually derived from enzyme kinetics or from competition with a known ligand.

rat striatal 5HT6 receptors, sequence (P31388 whole entry): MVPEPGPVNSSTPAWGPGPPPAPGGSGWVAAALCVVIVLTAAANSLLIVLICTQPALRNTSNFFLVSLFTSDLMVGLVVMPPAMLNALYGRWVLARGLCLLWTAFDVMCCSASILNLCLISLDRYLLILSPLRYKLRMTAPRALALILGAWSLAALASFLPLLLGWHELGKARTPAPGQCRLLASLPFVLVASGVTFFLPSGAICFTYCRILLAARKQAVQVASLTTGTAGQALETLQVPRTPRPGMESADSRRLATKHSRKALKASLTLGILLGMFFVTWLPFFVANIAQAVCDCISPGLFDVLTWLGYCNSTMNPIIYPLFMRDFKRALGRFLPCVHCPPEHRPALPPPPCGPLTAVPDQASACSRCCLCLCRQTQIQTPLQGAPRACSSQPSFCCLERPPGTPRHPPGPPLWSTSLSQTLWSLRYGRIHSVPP

The experiment concerns the target rat striatal 5HT6 receptors (Rattus norvegicus, UniProt P31388).
Procedure: Striatal tissue from adult rats (Sprague-Dawley, 320-370 g, B & K Sweden) were dissected out, weighed and homogenized in buffer containing 50 mM Tris-HCl, 4 mM MgCl2, 1 mM EDTA, 10 μM pargyline and protease inhibitor (Complete, Roche Diagnostics) pH 7.4 using an Ultra-Turrax T8 (IKA Labortechnik, Germany). The tissue homogenate was centrifuged at 48 000×g for 10 min and the pellet was resuspended and recentrifuged as above. The final membranes were diluted in buffer to a concentration of 60 mg original wet weight (w.w.) per ml and stored in aliquots at −70° C.
Non-specific binding was determined in the presence of 10 μM methiothepin. In the competition experiments 0.8-2 mg w.w. per tube and a radioligand concentration of 0.5-1 nM were used with 7 concentrations of the competing drug pre-dissolved in DMSO and diluted in buffer. The assays were incubated for 1-3 hours at room temperature, and terminated by rapid filtration through Whatman GF/B filters pretreated with 0.3% polyethyleneimine using a Brandel cell harvester. The radioactivity was determined in a Packard Tri-Carb 2900TR liquid scintillation counter. Data were analyzed by non-linear regression analyses using PRISM 4.00 (GraphPad Software Inc., San Diego, Calif.).
As for `COc1ccc(S(=O)(=O)Nc2cc(Cl)cc(Cl)c2)c2c1C[C@@H](N1CCCC1)CO2` [Example 69, (3R)—N-(3,5-Dichlorophenyl)-5-methoxy-3-pyrrolidin-1-ylchromane-8-sulfonamide], the affinity corresponds to a Ki of 27 ± 16 nM.

`CN[C@H]1COc2c(S(=O)(=O)Nc3ccccc3)ccc(OC)c2C1` [Example 71, (3R)-5-Methoxy-3-(methylamino)-N-phenylchromane-8-sulfonamide] yielded an inhibitory constant (Ki) of 30 ± 7 nM. For the compound `COc1ccc(Cl)cc1NS(=O)(=O)c1ccc(OC)c2c1CC[C@H](N(C)C)C2` [Example 1, (6S)—N-(5-Chloro-2-methoxyphenyl)-6-(dimethylamino)-4-methoxy-5,6,7,8-tetrahydronaphthalene-1-sulfonamide], the Ki was determined as 1.7 ± 0.6 nM. `CN[C@H]1CCc2c(S(=O)(=O)Nc3ccc(Cl)cc3)ccc(OC)c2C1` [Example 25, (6S)—N-(4-chlorophenyl)-4-methoxy-6-(methylamino)-5,6,7,8-tetrahydronaphthalene-1-sulfonamide]: the affinity corresponds to a Ki of 12 ± 4.2 nM.

Turning to `COc1ccc(S(=O)(=O)Nc2ccccn2)c2c1C[C@@H](N(C)C)CC2` [Example 18, (6S)-6-(Dimethylamino)-4-methoxy-N-pyridin-2-yl-5,6,7,8-tetrahydronaphthalene-1-sulfonamide], the inhibitory constant (Ki) came to 17 ± 5 nM. `CCc1ccc(S(=O)(=O)Nc2ccc(F)c(Cl)c2)c2c1C[C@@H](N(C)C)CO2` [Example 72, (3R)—N-(3-Chloro-4-fluorophenyl)-3-(dimethylamino)-5-ethylchromane-8-sulfonamide] showed an inhibition constant (Ki) of 290 ± 50 nM. This Ki is about 17-fold higher than that of the compound before. The compound `COc1ccc(S(=O)(=O)N2CCc3ccccc3C2)c2c1C[C@@H](N(C)C)CC2` [Example 21, [5-(3,4-Dihydro-1H-isoquinoline-2-sulfonyl)-8-methoxy-1,2,3,4-tetrahydro-naphthalen-2-yl]-dimethyl-amine] yielded a Ki of 4.2 ± 1.4 nM. The compound `COc1ccc(Cl)cc1NS(=O)(=O)c1ccc(OC)c2c1OC[C@H](N(C)C)C2` [Example 60, (3R)—N-(5-Chloro-2-methoxyphenyl)-3-(dimethylamino)-5-methoxychromane-8-sulfonamide] yielded a Ki of 2.3 ± 1.3 nM.
